CS(=O)(=O)c1ccc([C@@H](O)[C@@H](CF)NC(=O)C(Cl)Cl)cc1
solubility (mole fraction)
Details	283.15 K	288.15 K	293.15 K	298.15 K	303.15 K	308.15 K	313.15 K	318.15 K	323.15 K
in 2-ethylhexanol	0.000183	0.000254	0.000319	0.000383	0.000521	0.000635	0.000813	0.00103	0.00129
in ethanol	0.00151	0.00196	0.00244	0.00309	0.00369	0.00461	0.00562	0.00702	0.00842
in isobutanol	0.000293	0.000385	0.000497	0.000613	0.000819	0.00104	0.00137	0.0017	0.00224
in isopentanol	0.000487	0.000586	0.000765	0.000959	0.00123	0.00149	0.00191	0.00238	0.00285
in isopropanol	0.00061	0.00076	0.00101	0.00133	0.00169	0.00218	0.00278	0.00363	0.00457
in n-butanol	0.000512	0.000648	0.000821	0.00112	0.0014	0.00183	0.00236	0.00302	0.00385
in n-propanol	0.000974	0.00125	0.00165	0.00215	0.00269	0.00359	0.00437	0.00563	0.00712
in propionic acid	0.00027	0.000347	0.000447	0.000562	0.00073	0.000961	0.00123	0.0016	0.00211

Reference: BigSolDB 2.1
